According to patent US20260207717A1, “METHODS FOR TREATING INFANTILE-ONSET POMPE DISEASE IN PEDIATRIC PATIENTS” (Amicus Therapeutics, Inc., priority 2022, published 2026):

Experiments:
[1] = system: LAMP1, LC3, dysferlin in muscle fibers; assay: Biomarker changes (LAMP1, LC3, dysferlin) in muscle of Gaa KO mice; assay type: in vivo
Procedure: The therapeutic effects of ATB200 and miglustat were evaluated and compared against those of Alglucosidase alfa in Gaa KO mice. For the study, male Gaa KO (3- to 4-month old) and age-matched wild-type (WT) mice were used. Alglucosidase alfa was administered via bolus tail vein intravenous (IV) injection. In the co-administration regimen, miglustat was administered via oral gavage (PO) 30 minutes prior to the IV injection of ATB200. Treatment was given biweekly. Treated mice were sacrificed after 14 days from the last administration and various tissues were collected for further analysis. Table 11 summarizes the study design:
Tissue samples were also analyzed for biomarker changes following the methods discussed in: Khanna R, et al. (2012), “The pharmacological chaperone [i.e., enzyme stabilizer] […]
Similarly, intense LC3-positive aggregates in the muscle fibers of untreated Gaa KO mice signify the presence of autophagic zones and autophagy build-up. […] A similar observation was made when the expression of LC3 was assessed using western blot. […]
Dysferlin, a protein involved in membrane repair and whose deficiency/mistrafficking is associated with a number of muscular dystrophies, was also assessed.

[2] = system: single fibers isolated from the white gastrocnemius of Gaa KO mice; assay: Single fiber analysis (LAMP1/LC3 co-immunofluorescence); assay type: in vivo
Text: FIG. 17 depicts co-immunofluorescent staining of LAMP1 (green) (see for example, “B”) and LC3 (red) (see, for example, “A”) in single fibers isolated from the white gastrocnemius of Gaa KO mice treated with a vehicle, alglucosidase alfa, or ATB200. “C” depicts clearance of autophagic debris and absence of enlarged lysosome. A minimum of 30 fibers were examined from each animal.
As a result, a significant portion of muscle fibers analyzed (36-60%) from ATB200-treated mice appeared normal or near-normal.

[3] = system: adult subjects with late-onset Pompe disease (LOPD); assay: ATB200-03 (PROPEL) phase 3 trial, efficacy; assay type: in vivo, human; conditions: for absolute decline in percent-predicted FVC: 52 weeks; for 6MWD Baseline / FVC (% predicted) Baseline: before treatment
Procedure: Efficacy Analyses. The primary efficacy endpoint (i.e., change from baseline to Week 52 in 6MWD) was analyzed using a parametric analysis of covariance (ANCOVA) model to compare between the new treatment and the control. […] However, the baseline 6MWD could not be used in the model twice (both as a continuous and a categorical variable) due to the expected high point biserial correlation between them. Thus, the 6MWD continuous variable remained in the model but the categorical 6MWD was removed.

[4] = system: creatine kinase (CK), urinary hexose tetrasaccharide (Hex4); assay: ATB200-03 (PROPEL) trial, biomarkers; assay type: in vivo, human; conditions: for mean urinary Glc4 concentration: ERT-experienced patients
Text: Pharmacodynamic endpoints were as follows: • change from baseline to Week 52 in serum CK level • change from baseline to Week 52 in urinary Hex4 level

[5] = system: adult subjects with late-onset Pompe disease (LOPD); assay: ATB200-03 (PROPEL) trial, safety; set-up: species or system human; conditions: in vivo
Text: Concomitant medications and nondrug therapies were also be recorded.
Safety Analyses. Safety data was summarized using counts and percentages for categorical data and descriptive statistics (mean, standard deviation, median, minimum, maximum) for continuous data. • Efficacy Results from the ATB200-03 Trial

[6] = system: LOPD population (ERT-naïve and ERT-experienced); assay: Indirect treatment comparison, multi-level network meta regression (ML-NMR); set-up: species or system human; conditions: base-case scenario, sensitivity analysis (RCT data only, FIGS. 66, 67)
Procedure: Moreover, a comparison of three randomized clinical trials (LOTS: alglucosidase alfa vs placebo; COMET: avalglucosidase alfa vs alglucosidase alfa; and PROPEL: cipaglucosidase alfa/miglustat vs alglucosidase alfa) share 6MWD and % predicted FVC as key primary or secondary endpoints. Using patient-level data from the PROPEL randomized clinical trial (RCT) plus aggregate published data from other RCTs, Phase I/II and open label extension trials, a multi-level network meta-regression was conducted, adjusting for various baseline covariates including previous ERT duration. The base case scenario had covariates resembling the PROPEL population (naïve and ERT-experienced) and analyzed 6MWD and FVC change from baseline at 52 weeks. […]
A systematic literature review (SLR) was conducted to identify relevant published clinical studies of ERTs in LOPD. Outcomes assessed were change from baseline in 6-minute walking distance (6MWD) (m) and in forced vital capacity (FVC; % predicted) at week 52, acknowledged by clinicians, HTA agencies and payers as key LOPD trial endpoints. […]
A base-case scenario was evaluated in which all covariates were set to the target population of the PROPEL trial. […]

[7] = system: subjects with Pompe disease; conditions: LOPD, systematic review (Toscano and Schoser 2013); cited from earlier work
[8] = ERT treatment naive population, listed as Alglucosidase alfa
[9] = overall ERT switch and ERT naïve population

## [199-arginine,223-histidine]prepro-α-glucosidase (human) [alglucosidase alfa]
[1]
  LC3 II levels (western blot), effect on autophagy: modest
[2]
  Fibers with Autophagy Buildup: >90%
  Fibers with Normal or Near-normal Appearance: <10%
[3]; ERT switch population
  6MWD CFBL at Week 52: 0.0 m
  FVC (% predicted) CFBL at Week 52: −4.0 (0.9) % predicted
  absolute decline in percent-predicted FVC: 4.0%
  6MWD Baseline: 334.6 (114.0) m
  FVC (% predicted) Baseline: 67.5 (21.0) % predicted
[3]; ERT switch population, listed as Alglucosidase alfa
  6MWD CFBL at Week 52: 0.0 (7.2) m
[3]; ERT treatment naive population
  6MWD CFBL at Week 52: 38 m
  FVC (% predicted) CFBL at Week 52: −3.6 % predicted
  6MWD Baseline: 420.9 (135.7) m
  FVC (% predicted) Baseline: 79.1 (22.6) % predicted
[3]; [8]
  6MWD CFBL at Week 52: +38.3 (11.1) m
  FVC (% predicted) CFBL at Week 52: −3.6 (1.8) % predicted
[3]; baseline to week 52
  mean change (SD) in MMT score for lower extremities: 0.9 (2.58)
  mean change in total GSGC score: 0.77 (1.8)
[3]; [9]
  6MWD CFBL at Week 52: 7 m
  6MWD Baseline: 351.0 (121.3) m
[3]; overall ERT switch and ERT naïve population, listed as Alglucosidase alfa
  6MWD CFBL at Week 52: +7.2 (6.6) m
[3]; overall and ERT-experienced populations, week 52
  GSGC compared to alglucosidase alfa: worsening
[3]; overall population
  FVC (% predicted) CFBL at Week 52: −4.0 (0.8) % predicted
  absolute decline in percent-predicted FVC: 4.0%
  FVC (% predicted) Baseline: 69.7 (21.5) % predicted
[4]; Week 52
  mean urinary Glc4 concentration: 9.1 mmol/mol
[4]; baseline
  mean urinary Glc4 concentration: 7.2 mmol/mol
[4]; after 52 weeks
  mean change of CK: +15.6%
[4]; combined ERT switch and ERT naïve population, after 52 weeks
  mean change of urine Hex-4: +11.0%
[5]
  patients who discontinued treatment due to an adverse event: 2.6%
  patients with injection associated reactions (IARs): 26%
[6]
  relative effect on 6MWT and FVC: numerically favorable versus placebo
[7]
  subjects without initial improvement during treatment: > 30%
